Data from PMC3581075 (Journal of pharmaceutical sciences, 2011).
Where a name gives a salt, the structure may show the parent alone. Read-outs that look alike come from different tables or passages of the source.

What was measured:
[1] = system: rat hepatocytes; details: 2 min, rifampin 10 μM, MK-571 100 μM
[2] = system: rat hepatocytes
[3] = system: rat hepatocytes; remark: listed apart in the source
[4] = system: pooled rat microsomes
[5] = system: human hepatocytes
[6] = system: pooled human microsomes; test: Microsome incubations, pooled human microsomes; details: propranolol 10 μM; quinidine 30 μM
[7] = system: pooled rat microsomes; test: Microsome incubations, pooled rat microsomes; details: propranolol 10 μM, 0.5 mg/ml microsomes, 30 min, 37°C; rifampin 10 μM, quinidine 30 μM
[8] = classification by solubility, permeability and extent of metabolism; cited from earlier work
[9] = system: rat hepatocytes; remark: listed apart in the source
[10] = target: T1, OATP2B1 (Homo sapiens, UniProt O94956); details: on average; p<0.05
T1 sequence (O94956 1-709): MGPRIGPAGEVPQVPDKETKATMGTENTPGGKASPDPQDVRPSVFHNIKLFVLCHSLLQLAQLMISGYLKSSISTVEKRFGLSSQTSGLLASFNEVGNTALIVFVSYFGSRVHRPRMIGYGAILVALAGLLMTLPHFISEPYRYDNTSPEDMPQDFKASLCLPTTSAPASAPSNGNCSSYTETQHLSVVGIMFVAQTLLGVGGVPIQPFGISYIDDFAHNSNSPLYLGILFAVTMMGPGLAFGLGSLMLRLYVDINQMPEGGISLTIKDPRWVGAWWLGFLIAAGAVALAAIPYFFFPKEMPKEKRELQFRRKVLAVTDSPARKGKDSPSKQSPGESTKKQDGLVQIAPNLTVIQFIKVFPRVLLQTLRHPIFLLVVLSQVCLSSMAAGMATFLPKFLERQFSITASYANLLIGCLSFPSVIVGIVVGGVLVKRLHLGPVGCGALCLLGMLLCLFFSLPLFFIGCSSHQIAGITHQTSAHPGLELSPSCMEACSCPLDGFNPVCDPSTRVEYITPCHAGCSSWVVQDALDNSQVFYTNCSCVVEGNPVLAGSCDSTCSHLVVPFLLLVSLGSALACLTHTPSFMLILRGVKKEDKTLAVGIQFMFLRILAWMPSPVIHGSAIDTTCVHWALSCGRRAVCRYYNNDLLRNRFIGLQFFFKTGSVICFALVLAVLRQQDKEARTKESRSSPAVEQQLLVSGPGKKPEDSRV

[11] = target: T2, OATP1B3 (Homo sapiens, UniProt Q9NPD5); details: on average; p<0.05
T2 sequence (Q9NPD5 1-702): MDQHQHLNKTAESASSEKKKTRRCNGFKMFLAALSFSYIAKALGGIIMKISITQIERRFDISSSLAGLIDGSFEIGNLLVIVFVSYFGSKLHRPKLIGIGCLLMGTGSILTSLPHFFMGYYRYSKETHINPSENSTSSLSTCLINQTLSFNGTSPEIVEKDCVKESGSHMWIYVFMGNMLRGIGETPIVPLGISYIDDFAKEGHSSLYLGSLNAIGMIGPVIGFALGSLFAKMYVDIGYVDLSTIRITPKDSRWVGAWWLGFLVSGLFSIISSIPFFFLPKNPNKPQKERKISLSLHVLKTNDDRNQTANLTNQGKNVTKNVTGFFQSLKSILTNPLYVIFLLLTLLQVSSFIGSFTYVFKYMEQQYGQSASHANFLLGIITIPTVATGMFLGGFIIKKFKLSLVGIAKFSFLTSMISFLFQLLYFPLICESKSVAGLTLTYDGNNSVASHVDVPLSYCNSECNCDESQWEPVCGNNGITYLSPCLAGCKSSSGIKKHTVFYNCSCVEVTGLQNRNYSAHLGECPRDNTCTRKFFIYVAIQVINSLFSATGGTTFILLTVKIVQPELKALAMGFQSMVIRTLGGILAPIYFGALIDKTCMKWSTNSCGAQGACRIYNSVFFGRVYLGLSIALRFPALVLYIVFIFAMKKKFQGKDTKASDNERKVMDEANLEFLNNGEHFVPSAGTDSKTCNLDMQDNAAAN

[12] = system: pooled human microsomes

Q: With `CN(C)C(=O)CCSC(SCCC(=O)O)c1cccc(/C=C/c2ccc3ccc(Cl)cc3n2)c1` (stereo not shown) [MK-571] as the molecule, how does the “Change of uptake of propranolol in rat hepatocytes” value ([1]; propranolol 10 μM, n=4) read?
A: not significantly changed

Q: For `CC[C@H](C)[C@H](NC(=O)[C@H](CC(=O)O)NC(=O)[C@H](CC(C)C)NC(=O)[C@H](Cc1cnc[nH]1)NC(=O)[C@@H]1CSSC[C@H](N)C(=O)N[C@@H](CO)C(=O)N[C@H]2CSSC[C@H](NC(=O)[C@H](CCC(=O)O)NC(=O)[C@H](CCCCN)NC(=O)[C@H](CC(=O)O)NC(=O)[C@H](CCSC)NC(=O)[C@H](CC(C)C)NC(=O)[C@H](CO)NC(=O)[C@H](CO)NC2=O)C(=O)N[C@@H](C(C)C)C(=O)N[C@@H](Cc2ccc(O)cc2)C(=O)N[C@@H](Cc2ccccc2)C(=O)N1)C(=O)N[C@H](C(=O)N[C@@H](Cc1c[nH]c2ccccc12)C(=O)O)[C@@H](C)CC` [endothelin], which “Inhibition of uptake of losartan in rat hepatocytes” value [2] is on record?
A: 22%

Q: What does the source list for `CO[C@H]1/C=C/O[C@@]2(C)Oc3c(C)c(O)c4c(O)c(c(/C=N/N5CCN(C)CC5)c(O)c4c3C2=O)NC(=O)/C(C)=C\C=C\[C@H](C)[C@H](O)[C@@H](C)[C@@H](O)[C@@H](C)[C@H](OC(C)=O)[C@@H]1C` [rifampin]?
A: Change of uptake of eprosartan in rat hepatocytes compared to normal serum [3]: no significant differences; Effect on metabolism of losartan in rat microsomes [4]: no change in metabolism; Decrease of uptake of losartan in human hepatocytes compared to normal serum [5]: 55%

Q: Which “Effect on metabolism of propranolol in human microsomes” value [6] does the source give for `C=C[C@H]1C[N@@]2CC[C@H]1C[C@@H]2[C@@H](O)c1ccnc2ccc(OC)cc12` [quinidine] here?
A: inhibited propranolol metabolism

Q: What about the “Effect on metabolism of propranolol in rat microsomes” value [7] of the same molecule?
A: inhibit metabolism

Q: For `CCCCc1ncc(/C=C(\Cc2cccs2)C(=O)O)n1Cc1ccc(C(=O)O)cc1` [eprosartan], which BDDCS class [8] is on record?
A: Class 4

Q: What does the source list for `CCCCc1nc(Cl)c(CO)n1Cc1ccc(-c2ccccc2-c2nn[nH]n2)cc1` [losartan]?
A: Change in AUC of the cumulative metabolite [9]: no change in metabolite formation; BDDCS class [8]: Class 2

Q: Which “Decrease of uptake in pcMV6 empty vector control vs OATP2B1 transfected cells” value [10] does the source give for `CC12CCC3c4ccc(OS(=O)(=O)O)cc4CCC3C1CCC2=O` (stereo not shown) [[^3H]-estrone sulfate] here?
A: 80%

Q: What about the “Decrease of uptake in pcMV6 empty vector control vs OATP1B3 transfected cells” value [11] of the same molecule?
A: 50%

Q: With “IL-6: interleukin-6, tested as uremic toxin” as the molecule, how does the “Inhibition of uptake of losartan in rat hepatocytes” value ([1]; losartan 10 μM, p<0.05, n=4) read?
A: 28%

Q: With `CC(C)NCC(O)COc1cccc2ccccc12` (stereo not shown) [propranolol] as the molecule, how does the BDDCS class [8] read?
A: Class 1

Q: What does the source list for `Nc1ccc(S(=O)(=O)Nc2ccnn2-c2ccccc2)cc1` [sulfaphenazole]?
A: Effect on metabolism of losartan in human microsomes [12]: no inhibition of metabolism; Effect on metabolism of losartan in rat microsomes [4]: decrease in metabolism
